Assay [1] addresses T1, Transient receptor potential cation channel subfamily V member 1 (Rattus norvegicus, UniProt O35433). Kind of assay: In vitro antagonistic activity on VR1 receptor in [Ca2+] influx assay in rat dorsal root ganglion. In kind it is functional, tissue-based.
The target of assay [2] is T1, Transient receptor potential cation channel subfamily V member 1. The experiment in a line: In vitro agonistic activity on VR1 receptor in [Ca2+] influx assay in rat dorsal root ganglion (NE: not effective at 30 uM). In kind it is functional, tissue-based.

Our source for the IC50 values is ChEMBL document CHEMBL1144279, “Biarylcarboxybenzamide derivatives as potent vanilloid receptor (VR1) antagonistic ligands” (Bioorg Med Chem Lett, 2005).

For orientation: IC50 means the point on the concentration scale where inhibition reaches its midpoint. A high value points to lower potency.

T1 sequence (O35433 whole entry): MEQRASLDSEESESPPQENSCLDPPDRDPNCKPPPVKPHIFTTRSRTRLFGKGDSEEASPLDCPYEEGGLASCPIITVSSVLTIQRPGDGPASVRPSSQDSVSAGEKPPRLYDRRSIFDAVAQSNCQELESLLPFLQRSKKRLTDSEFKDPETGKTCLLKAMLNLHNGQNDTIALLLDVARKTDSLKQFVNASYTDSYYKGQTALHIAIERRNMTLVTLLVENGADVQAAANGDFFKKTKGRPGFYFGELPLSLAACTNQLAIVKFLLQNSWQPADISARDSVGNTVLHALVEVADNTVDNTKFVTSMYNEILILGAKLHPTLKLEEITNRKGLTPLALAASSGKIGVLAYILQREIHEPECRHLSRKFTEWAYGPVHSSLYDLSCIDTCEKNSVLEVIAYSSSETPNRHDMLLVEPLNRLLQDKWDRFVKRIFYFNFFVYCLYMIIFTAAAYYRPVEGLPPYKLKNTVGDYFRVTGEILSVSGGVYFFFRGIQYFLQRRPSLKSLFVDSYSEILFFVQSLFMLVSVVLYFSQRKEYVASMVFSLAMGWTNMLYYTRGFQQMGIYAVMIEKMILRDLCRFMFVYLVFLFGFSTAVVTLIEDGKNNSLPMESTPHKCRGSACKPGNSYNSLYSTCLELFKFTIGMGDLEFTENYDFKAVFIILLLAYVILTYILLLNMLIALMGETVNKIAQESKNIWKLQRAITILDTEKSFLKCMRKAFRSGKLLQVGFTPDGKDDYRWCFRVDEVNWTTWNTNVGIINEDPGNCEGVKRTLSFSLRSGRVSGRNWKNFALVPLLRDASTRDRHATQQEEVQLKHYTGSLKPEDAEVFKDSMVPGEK

Turning to `Cc1cccnc1-c1ccc(C(=O)Nc2ccc(C(C)(C)C)cc2)cc1`, the IC50 is 31 nM in assay [1] and “Not Active” in assay [2].
For `CC(C)(C)c1ccc(NC(=O)c2ccc(-c3ncccc3C(F)(F)F)cc2)cc1`, in that order: 140 nM and “Not Active”.
For `CC(C)(C)c1ccc(NC(=O)c2ccc(-c3ncccn3)cc2)cc1`, in that order: 60 nM and “Not Active”.
As to `Cc1ccc(NC(=O)c2ccc(-c3ccccn3)cc2)cc1C`, the half-maximal inhibitory concentration (IC50) in assay [1] was 2000 nM; in assay [2], “Not Active”.
As for `CC(C)(C)c1ccc(NC(=O)c2ccc(-c3cnccn3)cc2)cc1`, the results for the IC50 in assay [1] and in assay [2] were 1000 nM and “Not Active”, respectively.
Take `CN(C(=O)c1ccc(-c2ccccn2)cc1)c1ccc(C(C)(C)C)cc1`: the figures for the IC50 in assay [1] and in assay [2] were > 10000 nM and “Not Active”, respectively.
With `CC(C)(C)c1ccc(NC(=O)c2ccc(-c3ncccc3[N+](=O)[O-])cc2)cc1`, the IC50 in assay [1] is 60 nM; in assay [2], “Not Active”.
In the same order, the values of `O=C(Nc1ccc(C(F)(F)F)cc1)c1ccc(-c2ccccn2)cc1` are 7900 nM and “Not Active”.
As to `CC(C)(C)c1ccc(NC(=O)c2ccc(-c3ccccn3)cc2)cc1`, the IC50 was 31 nM in assay [1] and “Not Active” in assay [2].
For `CC(C)(C)c1ccc(NC(=O)N2CCN(c3ccccn3)CC2)cc1`, in that order: 150 nM and “Not Active”.
For the compound `O=C(Nc1ccccc1)c1ccc(-c2ccccn2)cc1`, the IC50 is > 10000 nM in assay [1] and “Not Active” in assay [2].
For `CC(C)(C)c1ccc(NC(=O)c2ccc(-c3ncccc3Cl)cc2)cc1`, in that order: 55 nM and “Not Active”.
For `Cc1ccc(NC(=O)c2ccc(-c3ccccn3)cc2)cc1`, in that order: 2300 nM and “Not Active”.
In the same order, the values of `CC(C)c1ccc(NC(=O)c2ccc(-c3ccccn3)cc2)cc1` are 38 nM and “Not Active”.
In the case of `CC(C)(C)c1ccc(NC(=O)c2ccc(-c3ccccc3)cc2)cc1`, the results for the IC50 in assay [1] and in assay [2] were 3600 nM and “Not Active”, respectively.
In the same order, the values of `CC(C)(C)c1ccc(NC(=O)c2ccc(-c3ccncc3)cc2)cc1` are 280 nM and “Not Active”.
For `CC(C)(C)c1ccc(NC(=O)c2ccc(-c3cccnc3)cc2)cc1`, in that order: 1300 nM and “Not Active”.
For `CC(C)(C)c1ccc(NC(=O)c2ccc(-c3cncnc3)cc2)cc1`, in that order: > 10000 nM and “Not Active”.
